Test results reported in patent US6444862B1, “Synthesis and isolation of metal alkoxides” (Mine Safety Appliances Company, priority 2000, dated 2002).

Experiment: Solubility of metal alkoxide in solvent
Type: physicochemical
Conditions: solution in heptane
Description: To provide a safer material, metal alkoxides are often dissolved in a solvent. In general, liquids are, for example, easier to transfer from drums or cylinders into reactors (reducing the exposure of human handlers to dangerous materials), more easily kept under an inert atmosphere, and provide more options for modes of addition to the substrate. […] The low solubilities of many alkoxides have been attributed to the ionic character and the extent of oligomerization or polymerization in solution. Another factor affecting solubility in an alcohol solvent is the propensity of alkoxides to form insoluble alcoholate complexes with the alcohol. Metal alkoxides are somewhat more soluble in polar ethereal solvents such as tetrahydrofuran and the polyethers (glymes). However, even in ethers, the solubility is generally less than 50%, especially at or below room temperature (that is, at or below 25° C.). Moreover, the range of polar solvents is somewhat limited as a result of the reactivity of the alkoxide. Furthermore, in some cases the solvent of choice for the desired reaction involving a metal alkoxide is not compatible with the alkoxide or the metal alkoxide is insoluble therein.
In one set of studies, potassium 3,7-dimethyl-3-octanoxide (KDMO), was prepared by the reaction of potassium metal with 3,7-dimethyl-3-octanol in heptane in a pressure reaction vessel. […]

## CCC(C)([O-])CCCC(C)C.[K+] (stereo not shown) [Example 1, Potassium 3,7-Dimethyl-3-octanoxide]
  concentration of alkoxide solution prepared: 70-75 wt %
